Laboratory results from patent US20240228504A1, “SUBSTITUTED TRICYCLIC AMIDES, ANALOGUES THEREOF, AND METHODS USING SAME” (Arbutus Biopharma Corporation, priority 2020, published 2024).
Like-named read-outs stand apart in the source and are kept apart here.

Tested on: HBV rcDNA in HepDE19 cells
Assay: HepDE19 assay with bDNA quantitation of HBV rcDNA
Assay type: cell-based, hepatitis B virus
Details: inhibition of rcDNA formation, bDNA quantitation, read-out: DE-19bDNA EC50

Row | Structure (SMILES) | EC50 (HepDE19 assay) [nM] | EC50 (Hepatitis B virus, HepDE19, HepDE19 assay) [nM]
1 | CN(C(=O)c1cc2c(F)cc(F)cc2[nH]1)C1CNCc2[nH]c(=O)c3cc(F)c(F)cc3c21 (single isomer, unassigned) [Compound 118, N-(8,9-Difluoro-6-oxo-1,2,3,4,5,6-hexahydrobenzo[c][1,7]naphthyridin-1-yl)-4,6-difluoro-N-methyl-1H-indole-2-carboxamide] | 1200 | 
2 | CN(C(=O)c1cc2c(F)c(F)ccc2[nH]1)C1CNCc2[nH]c(=O)c3cc(F)c(F)cc3c21 (single isomer, unassigned) [Compound 119, N-(8,9-Difluoro-6-oxo-1,2,3,4,5,6-hexahydrobenzo[c][1,7]naphthyridin-1-yl)-4,5-difluoro-N-methyl-1H-indole-2-carboxamide] | 10 | 
3 | CN(C(=O)c1cc2c(F)c(F)ccc2[nH]1)C1CNCc2[nH]c(=O)c3cc(F)c(F)cc3c21 (single isomer, unassigned) [Compound 120, N-(8,9-Difluoro-6-oxo-1,2,3,4,5,6-hexahydrobenzo[c][1,7]naphthyridin-1-yl)-4,5-difluoro-N-methyl-1H-indole-2-carboxamide] | 850 | 
4 | CN(C(=O)c1cc2ccc(Cl)cn2c1)C1CNCc2[nH]c(=O)c3cc(F)c(F)cc3c21 (single isomer, unassigned) [Compound 121, 6-Chloro-N-(8,9-difluoro-6-oxo-1,2,3,4,5,6-hexahydrobenzo[c][1,7]naphthyridin-1-yl)-N-methylindolizine-2-carboxamide] | 30 | 
5 | CN(C(=O)c1cc2ccc(Cl)cn2c1)C1CNCc2[nH]c(=O)c3cc(F)c(F)cc3c21 (single isomer, unassigned) [Compound 122, 6-Chloro-N-(8,9-difluoro-6-oxo-1,2,3,4,5,6-hexahydrobenzo[c][1,7]naphthyridin-1-yl)-N-methylindolizine-2-carboxamide] | 1200 | 
6 | CN(C(=O)c1cc2c(F)cccn2c1)C1C[S+]([O-])Cc2[nH]c(=O)c3cc(F)c(F)cc3c21 (single isomer, unassigned) [Compound 149, N-(8,9-Difluoro-3-oxido-6-oxo-1,4,5,6-tetrahydro-2H-thiopyrano[3,4-c]isoquinolin-1-yl)-8-fluoro-N-methylindolizine-2-carboxamide] | 150 | 
7 | CN(C(=O)c1cc2c(F)cccn2c1)C1C[S+]([O-])Cc2[nH]c(=O)c3cc(F)c(F)cc3c21 (single isomer, unassigned) [Compound 150, N-(8,9-Difluoro-3-oxido-6-oxo-1,4,5,6-tetrahydro-2H-thiopyrano[3,4-c]isoquinolin-1-yl)-8-fluoro-N-methylindolizine-2-carboxamide] | 1100 | 
8 | CN(C(=O)c1cc2c(F)cccn2c1)C1CS(=O)(=O)Cc2[nH]c(=O)c3cc(F)c(F)cc3c21 (single isomer, unassigned) [Compound 151, N-(8,9-Difluoro-3,3-dioxido-6-oxo-2,4,5,6-tetrahydro-1H-thiopyrano[3,4-c]isoquinolin-1-yl)-8-fluoro-N-methylindolizine-2-carboxamide] | 3610 | 
9 | CN(C(=O)c1cc2c(F)cccn2c1)C1CS(=O)(=O)Cc2[nH]c(=O)c3cc(F)c(F)cc3c21 (single isomer, unassigned) [Compound 152, N-(8,9-Difluoro-3,3-dioxido-6-oxo-2,4,5,6-tetrahydro-1H-thiopyrano[3,4-c]isoquinolin-1-yl)-8-fluoro-N-methylindolizine-2-carboxamide] | 730 | 
10 | CN(C(=O)c1cc2c(F)cccn2c1)C1CNCc2[nH]c(=O)c3cc(F)c(F)cc3c21 (single isomer, unassigned) [Compound 160, N-(8,9-Difluoro-6-oxo-1,2,3,4,5,6-hexahydrobenzo[c][1,7]naphthyridin-1-yl)-8-fluoro-N-methylindolizine-2-carboxamide] | 16200 | 
11 | CN(C(=O)c1cc2c(F)cccn2c1)C1CNCc2[nH]c(=O)c3cc(F)c(F)cc3c21 (single isomer, unassigned) [Compound 161, N-(8,9-Difluoro-6-oxo-1,2,3,4,5,6-hexahydrobenzo[c][1,7]naphthyridin-1-yl)-8-fluoro-N-methylindolizine-2-carboxamide] | 20 | 
12 | CN(C(=O)c1cc2cc(F)ccn2c1)C1CNCc2[nH]c(=O)c3cc(F)c(F)cc3c21 (single isomer, unassigned) [Compound 162, N-(8,9-Difluoro-6-oxo-1,2,3,4,5,6-hexahydrobenzo[c][1,7]naphthyridin-1-yl)-7-fluoro-N-methylindolizine-2-carboxamide] | 13800 | 
13 | CN(C(=O)c1cc2cc(F)ccn2c1)C1CNCc2[nH]c(=O)c3cc(F)c(F)cc3c21 (single isomer, unassigned) [Compound 163, N-(8,9-Difluoro-6-oxo-1,2,3,4,5,6-hexahydrobenzo[c][1,7]naphthyridin-1-yl)-7-fluoro-N-methylindolizine-2-carboxamide] | 30 | 
14 | CN(C(=O)c1cc(F)c(Br)c(F)c1)C1CNCc2[nH]c(=O)c3cc(F)c(F)cc3c21 (single isomer, unassigned) [Compound 164, 4-Bromo-N-(8,9-difluoro-6-oxo-1,2,3,4,5,6-hexahydrobenzo[c][1,7]naphthyridin-1-yl)-3,5-difluoro-N-methylbenzamide] | 2880 | 
15 | CN(C(=O)c1cc(F)c(Br)c(F)c1)C1CNCc2[nH]c(=O)c3cc(F)c(F)cc3c21 (single isomer, unassigned) [Compound 165, 4-Bromo-N-(8,9-difluoro-6-oxo-1,2,3,4,5,6-hexahydrobenzo[c][1,7]naphthyridin-1-yl)-3,5-difluoro-N-methylbenzamide] | 20 | 
16 | CN(C(=O)c1cc(F)c(Br)c(F)c1)C1COCc2[nH]c(=O)c3cc(F)ccc3c21 (single isomer, unassigned) [Compound 166, 4-Bromo-3,5-difluoro-N-(8-fluoro-6-oxo-2,4,5,6-tetrahydro-1H-pyrano[3,4-c]isoquinolin-1-yl)-N-methylbenzamide] | 1910 | 
17 | CN(C(=O)c1cc(F)c(Br)c(F)c1)C1COCc2[nH]c(=O)c3cc(F)ccc3c21 (single isomer, unassigned) [Compound 167, 4-Bromo-3,5-difluoro-N-(8-fluoro-6-oxo-2,4,5,6-tetrahydro-1H-pyrano[3,4-c]isoquinolin-1-yl)-N-methylbenzamide] | 10 | 
18 | CN(C(=O)c1cc(F)c(Cl)c(F)c1)C1CNCc2[nH]c(=O)c3cc(F)c(F)cc3c21 (single isomer, unassigned) [Compound 168, 4-Chloro-N-(8,9-difluoro-6-oxo-1,2,3,4,5,6-hexahydrobenzo[c][1,7]naphthyridin-1-yl)-3,5-difluoro-N-methylbenzamide] | 11300 | 
19 | CN(C(=O)c1cc(F)c(Cl)c(F)c1)C1CNCc2[nH]c(=O)c3cc(F)c(F)cc3c21 (single isomer, unassigned) [Compound 169, 4-Chloro-N-(8,9-difluoro-6-oxo-1,2,3,4,5,6-hexahydrobenzo[c][1,7]naphthyridin-1-yl)-3,5-difluoro-N-methylbenzamide] | 40 | 
20 | CN(C(=O)c1cc(F)c(Br)c(F)c1)C1CNCc2[nH]c(=O)c3cc(F)ccc3c21 (single isomer, unassigned) [Compound 170, 4-Bromo-3,5-difluoro-N-(8-fluoro-6-oxo-1,2,3,4,5,6-hexahydrobenzo[c][1,7]naphthyridin-1-yl)-N-methylbenzamide] | 22000 | 
21 | CN(C(=O)c1cc(F)c(Br)c(F)c1)C1CNCc2[nH]c(=O)c3cc(F)ccc3c21 (single isomer, unassigned) [Compound 171, 4-Bromo-3,5-difluoro-N-(8-fluoro-6-oxo-1,2,3,4,5,6-hexahydrobenzo[c][1,7]naphthyridin-1-yl)-N-methylbenzamide] | 510 | 
22 | CN(C(=O)c1cc(F)c(Cl)c(F)c1)C1COCc2[nH]c(=O)c3cc(F)ccc3c21 (single isomer, unassigned) [Compound 174, 4-Chloro-3,5-difluoro-N-(8-fluoro-6-oxo-2,4,5,6-tetrahydro-1H-pyrano[3,4-c]isoquinolin-1-yl)-N-methylbenzamide] | 5100 | 
23 | CN(C(=O)c1cc(F)c(Cl)c(F)c1)C1COCc2[nH]c(=O)c3cc(F)ccc3c21 (single isomer, unassigned) [Compound 175, 4-Chloro-3,5-difluoro-N-(8-fluoro-6-oxo-2,4,5,6-tetrahydro-1H-pyrano[3,4-c]isoquinolin-1-yl)-N-methylbenzamide] | 30 | 
24 | CN(C(=O)c1cc(F)c(Cl)c(F)c1)C1CNCc2[nH]c(=O)c3cc(F)ccc3c21 (single isomer, unassigned) [Compound 176, 4-Chloro-3,5-difluoro-N-(8-fluoro-6-oxo-1,2,3,4,5,6-hexahydrobenzo[c][1,7]naphthyridin-1-yl)-N-methylbenzamide] |  | 19600
25 | CN(C(=O)c1cc(F)c(C(F)F)c(F)c1)C1COCc2[nH]c(=O)c3cc(F)ccc3c21 (single isomer, unassigned) [Compound 178, 4-(Difluoromethyl)-3,5-difluoro-N-(8-fluoro-6-oxo-1,4,5,6-tetrahydro-2H-pyrano[3,4-c]isoquinolin-1-yl)-N-methylbenzamide] | 7400 | 
26 | CN(C(=O)c1cc(F)c(C(F)F)c(F)c1)C1COCc2[nH]c(=O)c3cc(F)ccc3c21 (single isomer, unassigned) [Compound 179, 4-(Difluoromethyl)-3,5-difluoro-N-(8-fluoro-6-oxo-1,4,5,6-tetrahydro-2H-pyrano[3,4-c]isoquinolin-1-yl)-N-methylbenzamide] | 50 | 
27 | CN(C(=O)c1cc2c(C(F)F)cccc2[nH]1)C1COCc2[nH]c(=O)c3cc(F)ccc3c21 (single isomer, unassigned) [Compound 181, 4-(Difluoromethyl)-N-(8-fluoro-6-oxo-1,4,5,6-tetrahydro-2H-pyrano[3,4-c]isoquinolin-1-yl)-N-methyl-1H-indole-2-carboxamide] | 5500 | 
28 | CN(C(=O)c1cc2c(C(F)F)cccc2[nH]1)C1COCc2[nH]c(=O)c3cc(F)ccc3c21 (single isomer, unassigned) [Compound 182, 4-(Difluoromethyl)-N-(8-fluoro-6-oxo-1,4,5,6-tetrahydro-2H-pyrano[3,4-c]isoquinolin-1-yl)-N-methyl-1H-indole-2-carboxamide] | 750 | 
